Laboratory results reported in US11771649B1, “Pharmaceutical lotion or salve utilizing mixed metal hydroxide antimicrobial charged particles” (Magalum LLC, priority 2021, dated 2023).

System: methicillin resistant Staphylococcus aureus
Assay: Example XXI: wound infected with methicillin resistant Staphylococcus aureus
Format: in vivo, horse
Source text: A 4 year old quarter horse mare had received a 4 inch cut on the chest from an encounter with a corral fence and had developed an infection. […] At that time, a specimen was taken from the wound and sent to a diagnostic lab for identification. Treatment of the wound was then started with silver sulfa diazole. When the results were returned from the diagnostic lab, the pathogen was identified as methicillin resistant Staphylococcus aureus. At that time, salve as described in Example 4 was applied to the wound, and then reapplied twice daily.

Compound | state of wound (prior treatment, after two days) | state of wound (10,000 units per pound body weight injection, after 72 hours)
NC(=O)N/N=C/c1ccc([N+](=O)[O-])o1 [nitrofurazone ointment, nitrofurazone] | no positive result | –
penicillin | – | no improvement was again noted
